Data published in publication PMC5093939, “Teicoplanin-based antimicrobial therapy in Staphylococcus aureus bone and joint infection: tolerance, efficacy and experience with subcutaneous administration” (BMC Infectious Diseases, 2016).
Read-outs that look alike come from different tables or passages of the source. Marks after values point to notes of the source that are not given here.

Columns and labels:
[1] = in vivo
Description: Patients diagnosed with staphylococcal BJI were identified by cross-referencing the prospective maintained databases of the regional referral center for BJI and the bacteriology laboratory, which list exhaustively all strains isolated from osteoarticular samples since 2001. Patients with diabetic foot- and decubitus ulcer-related BJI were excluded, as they require a specific management. If patients presented more than one osteoarticular infected site, they were considered as independent events for cohort description and outcome analysis, but pooled for tolerance and pharmacologic evaluation. For each patient, data were collected from medical records, nursing charts and biological software in an anonymous standardized case report form.
A Cmin >15 mg/L was taken as an acceptable therapeutic target. Patients with a Cmin >25 mg/L were considered as overexposure.
For intravenous (IV) administration, each dose was diluted in 100 mL of isotonic saline solution and administrated over a 30-min period. For subcutaneous (SC) injections, each dose was diluted in 50 mL of isotonic saline solution and delivered by a nurse during a 30- to 60-min gravity infusion using a butterfly disposable needle.
Descriptive statistics were used to estimate the frequencies of the study variables, described as percentages (%) for dichotomous variables, and medians (interquartile range (IQR)) for continuous variables. For the percentage calculation of each variable, the number of missing values was excluded from the denominator. Non-parametric statistical methods were used to compare the study groups (Chi-squared test, Fisher exact test and Mann–Whitney U test), as appropriate. […] Clinically pertinent variables with a p-value <0.15 in the univariate analysis were included in the final multivariate models. A value of p <0.05 was considered as significant. All analyses were performed using SPSS software version 19.0 (SPSS, Chicago, IL).

[2] = Teicoplanin-related adverse events (CTCAE) and their determinants; set-up: species or system human; details: in vivo
Description: Teicoplanin-related adverse events (AE) occurring during follow-up were notified and classified according to the Common Terminology Criteria for Adverse Events (CTCAE, National Cancer Institute, 2003). Teicoplanin accountability in the AE occurrence was left to the clinician appreciation, with the help of a pharmacovigilance specialist in doubtful cases.

[3] = system: Staphylococcus aureus bone and joint infection; assay: Outcome (treatment failure) of teicoplanin-treated S. aureus bone and joint infection and its determinants; type: in vivo, human
Description: BJI diagnosis was based upon the existence of clinical and biological evidences of infection, and at least one reliable bacteriological sample positive for S. aureus (i.e., percutaneous joint fluid aspiration, surgical sample, and/or blood culture). BJI were classified according to: i) the existence of orthopedic implant (i.e. joint prosthesis, peripheral or vertebral osteosynthesis); and ii) progression of infection, differentiating acute (≤3 weeks) versus chronic (>3 weeks) infection, calculated from the presumed date of inoculation (i.e., date of device implantation for postoperative orthopaedic device-related infection (ODI), or date of symptom onset for native BJI) up to diagnosis.
Treatment failure was defined as persisting infection under appropriate antimicrobial therapy, relapse after the interruption of antimicrobial therapy, necessity of surgical revision on the account of persisting septic focus ≥5 days after the first intervention, superinfections, and/or fatal outcome if BJI-related.

S. aureus isolates = assay: Susceptibility of staphylococcal isolates to teicoplanin; type: cell-based, Staphylococcus aureus; details: all S. aureus isolates of the 65 episodes (MRSA 16.9 %); exact MIC not available; breakpoints ref 23
[4] = ref 12 (LeFrock et al), cited from earlier work
Description: These current difficulties in the field of BJI explain the limited and controversial data available on the efficacy of teicoplanin in staphylococcal BJI. In past studies, treatment success rate ranged from 53 to 91 % [11–14]. The low success rate observed in our study (60 %) may be explained by several factors. First, there is a significant selection bias as patients were recruited in a reference center dedicated to manage complex BJI with a high-risk of failure. In addition, most of past studies included native BJI with a relatively short follow-up (<1 year). Finally, pharmacodynamics par ...

[5] = cited from earlier work
Description: However, the incidence of AE was probably been underestimated due to the retrospective nature of our study (memory bias for non-severe AE). Indeed, in the prospective study of LeFrock et al, the rate of AE was 35 %, requiring discontinuation of treatment in 17 % of the cases. […] The retrospective design may result in underestimating non-serious AE such as injection site reactions.

teicoplanin
Patients obtaining Cmin >15 mg/L within the first 2 weeks of treatment [1]: 66.1% | Subcutaneous versus intravenous route: pharmacokinetics and tolerance [1]: no difference | Delay for Cmin >15 mg/L ([1]; iv): 9 (6–13) days | Initial Cmin <15 mg/L ([1]; iv): 29 (74.4 %) | Initial Cmin >25 mg/L ([1]; iv): 0 (0 %) | Overdose (day 1 to 14), Cmin >25 mg/L ([1]; iv): 8 (16.0 %) | Delay for Cmin >15 mg/L ([1]; sc): 7 (4.5–9.5) days | Initial Cmin <15 mg/L ([1]; sc): 7 (70.0 %) | Initial Cmin >25 mg/L ([1]; sc): 0 (0 %) | Overdose (day 1 to 14), Cmin >25 mg/L ([1]; sc): 2 (14.3 %) | Number of cutaneous rashes [2]: 5 | Number of episodes of headache [2]: 1 | Number of pancytopenia [2]: one | OR (95%CI) of teicoplanin-related adverse event: administration route switch [2]: 0.221 (0.023-2.124) | OR (95%CI) of teicoplanin-related adverse event: delay for Cmin >15 mg/L (days) [2]: 1.019 (0.769-1.351) | OR (95%CI) of teicoplanin-related adverse event: initial Cmin (day 3 to 5, mg/L) [2]: 0.818 (0.656-1.020) | OR (95%CI) of teicoplanin-related adverse event: initial Cmin <15 mg/L [2]: 2.037 (0.213-19.494) | OR (95%CI) of teicoplanin-related adverse event: loading dose (mg/kg/12h) [2]: 1.850 (0.001-4228.586)^b | OR (95%CI) of teicoplanin-related adverse event: loading dose given [2]: 0.889 (0.091-8.646) | OR (95%CI) of teicoplanin-related adverse event: maintenance dose (mg/kg/24h) [2]: 5.150 (0.004-6359.356)^b | OR (95%CI) of teicoplanin-related adverse event: number of loading injections [2]: 0.870 (0.559-1.354) | Resolution of AE [2]: Yes | OR (95%CI) of teicoplanin-related adverse event: IV route ([2]; iv): 0.571 (0.093-3.508) | Teicoplanin-related AE ([2]; iv): 4 (8.7 %) | Teicoplanin-related AE ([2]; sc): 2 (14.3 %) | Influence of administration route on outcome ([3]; IV versus SC, treatment failure analysis): did not influence the outcome | Limb amputations ([3]; among iterative surgical procedures, 65 episodes): two | Susceptibility of staphylococcal isolates (S. aureus isolates): susceptible | Cmin ([4]; average after 6 days, 6 mg/kg/day after 5 loading doses of 6 mg/kg/12 h): 10000 ng/mL | Cmin ([4]; average from the third day, 12 mg/kg/day after 5 loading doses of 12 mg/kg/12 h): 20000 ng/mL | Risk of toxicity with dose increase ([5]; dose increase from 400 to 600 mg/day): not associated with an increased risk of toxicity | Severe local reaction (grade ≥3) ([5]; prospective evaluation of SC teicoplanin in 30 patients, ref 29 (El Samad et al)): no severe local reaction
